Data set [1] relates to Lymphocyte. Put plainly: Immunosuppressive activity against lymphocyte by mixed lymphocyte reaction assay. Type of data set: functional, cell-based.
For data set [2], the system named is P388. Put plainly: Antitumor activity against mouse P388 cells. Format: functional, cell-based.
Data set [3] in a line: (§1) Toxicity against Artemia salina. Type of data set: organism-based. The settings on record: in vivo.
Data set [4] deals with Artemia salina. The data set is described as §1. The settings on record: in vivo. Format: organism-based.

≈ marks a conversion by molar mass, not a printed value. Calls of active or inactive are those of the source. The rule behind the calls is not given here.

For nine compounds, Activity and LC50 results are on record in ChEMBL document CHEMBL1149741, “Further bioactive acetylenic compounds from the Caribbean sponge Cribrochalina vasculum” (J Nat Prod, 1992).

The term LC50 denotes the concentration lethal to half of the exposed cells or organisms. A lower LC50 goes with a more lethal substance. Take `C#C[C@H](O)/C=C/CCCCCCCCCCCCCC(C)C`: the outcome in data set [1] and in data set [2] was Active. Also, the LC50 in data set [3] is 0.8 µg/mL (≈ 2.61 µM).
Take `C#C[C@H](O)/C=C/CCCCCCCCCCC(C)CCCC` (some centres undefined): the result in data set [1] and in data set [2] was Active. The compound further displayed a median lethal concentration (LC50) in data set [3] of 0.8 µg/mL (≈ 2.61 µM).
Take `C#C[C@H](O)CCCCCCCCCCCCCCCC(C)C`: the LC50 in data set [3] came to 1 µg/mL (≈ 3.24 µM).
With `C#C[C@H](O)/C=C/CCCCCCCCC/C=C/CCCCCC`, the outcome in data set [1] and in data set [2] was Active. The same compound registered a median lethal concentration (LC50) in data set [3] of 0.4 µg/mL (≈ 1.26 µM).
In turn, `C#C/C=C/CCCCCCCCCC/C=C\CCCCCC` returned an LC50 in data set [3] of 1.1 µg/mL (≈ 3.64 µM).
The same measure, in the same setting: next, `C#C[C@H](O)/C=C/CCCCCCCCC(C)CCCCCCCC` (some centres undefined): 0.03 µg/mL (≈ 0.0897 µM).
For `C#CC(O)/C=C/CCCCCCCCC/C=C/CCCCC(C)C` (centres undefined), the result in data set [1] and in data set [2] was Active. The Activity result in data set [4] is listed as “Toxic”.
Consider `C#CC(O)/C=C/CCCCCCCCCCCCCCC` (centres undefined), for which the result in data set [1] and in data set [2] was Active. The Activity entry in data set [4] was “Toxic”.
In data set [3], `C#C[C@H](O)CCCCCCCCCCCCC(C)CCCC` (some centres undefined) registered a median lethal concentration (LC50) of 1.2 µg/mL (≈ 3.89 µM).
